The results in this text go back to US20230144824A1, “1H-PYRAZOLO[4,3-d]PYRIMIDINE COMPOUNDS AS TOLL-LIKE RECEPTOR 7 (TLR7) AGONISTS” (BRISTOL-MYERS SQUIBB COMPANY, priority 2020, published 2023).

Read-outs that look alike come from different tables or passages of the source.

The test system of one experiment is CD69. The experiment can be described thus: Induction of CD69 in human whole blood. The experiment is classed as cell-based. The note with it: 100% set to 1 uM of resiquimod, average where assay performed multiple times, read-out: hWB CD69 EC50. In short, it runs like this: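 Heparinized human whole blood treated with TLR7 agonist at final 1 uM and incubated 17 h at 37° C. CD69 surface staining alongside CD14 and CD19, then fix/lysis and flow cytometry on iQuePlus. Curves fitted with 1 uM resiquimod set as 100%.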

The next experiment addresses T1, human TLR7 (Homo sapiens, UniProt Q9NYK1).
T1 construct: host or cells: HEK-Blue TLR7 cells (engineered human embryonic kidney cells)
T1 sequence (Q9NYK1 27-1049): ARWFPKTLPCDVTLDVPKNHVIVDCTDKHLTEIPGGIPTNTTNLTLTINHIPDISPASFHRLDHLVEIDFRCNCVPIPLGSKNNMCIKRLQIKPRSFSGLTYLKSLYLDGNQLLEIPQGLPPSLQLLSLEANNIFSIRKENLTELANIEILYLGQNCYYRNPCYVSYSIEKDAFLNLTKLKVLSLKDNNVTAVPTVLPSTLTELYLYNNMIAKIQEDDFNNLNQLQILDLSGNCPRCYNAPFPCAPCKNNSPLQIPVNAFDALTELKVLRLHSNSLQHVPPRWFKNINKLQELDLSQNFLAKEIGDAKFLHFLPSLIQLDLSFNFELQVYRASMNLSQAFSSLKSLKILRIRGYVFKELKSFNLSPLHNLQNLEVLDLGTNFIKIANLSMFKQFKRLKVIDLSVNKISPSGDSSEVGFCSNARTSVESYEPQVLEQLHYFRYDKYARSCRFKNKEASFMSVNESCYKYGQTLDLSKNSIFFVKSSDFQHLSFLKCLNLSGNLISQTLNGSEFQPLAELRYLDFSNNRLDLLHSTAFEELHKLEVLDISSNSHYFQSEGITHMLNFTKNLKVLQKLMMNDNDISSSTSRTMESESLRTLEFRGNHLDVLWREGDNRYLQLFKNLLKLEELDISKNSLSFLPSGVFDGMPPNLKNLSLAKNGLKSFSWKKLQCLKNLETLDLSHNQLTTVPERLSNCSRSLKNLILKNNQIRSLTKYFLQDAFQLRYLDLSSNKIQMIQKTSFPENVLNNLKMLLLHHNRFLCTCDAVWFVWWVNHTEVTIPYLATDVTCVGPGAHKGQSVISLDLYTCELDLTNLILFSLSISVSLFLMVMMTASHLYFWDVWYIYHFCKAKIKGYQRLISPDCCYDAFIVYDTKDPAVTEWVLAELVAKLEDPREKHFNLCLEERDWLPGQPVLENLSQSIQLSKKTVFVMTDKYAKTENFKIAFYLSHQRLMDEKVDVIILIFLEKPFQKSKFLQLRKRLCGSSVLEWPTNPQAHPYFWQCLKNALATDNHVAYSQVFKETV
The experiment can be described thus: Human TLR7 agonist activity assay (HEK-Blue TLR7 SEAP reporter). The experiment is classed as cell-based. Particulars: HEK-Blue TLR7 cells, 18 h treatment, average where assay performed multiple times, read-out: hTLR7 Agonism EC50. A digest of the protocol:
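HEK-Blue TLR7 cells (15,000/well) treated with compound for 18 h at 37 °C, 5% CO2. Secreted SEAP measured with Quanti-Blue, 30 min, OD 620 nm. EC50 taken as concentration giving half-maximal response between baseline and maximum.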

Turning to `CCCCNc1nc(N)nc2cnn(Cc3ncc(C4CC(C)(C)NC(C)(C)C4)cc3OC)c12` [Compound 170, N7-butyl-1-{[3-methoxy-5-(2,2,6,6-tetramethylpiperidin-4-yl)pyridin-2-yl]methyl}-1H-pyrazolo[4,3-d]pyrimidine-5,7-diamine], the EC50 (usually the concentration giving half of the maximal effect) was determined as 42.6 nM in the experiment on CD69 (Homo sapiens, 17 h) and 209 nM at human TLR7.
Take `CCC[C@@H](CCO)Nc1nc(N)nc2cnn(Cc3ncc(N4CCNCC4)cc3OC)c12` [Compound 171, (3S)-3-[(5-amino-1-{[3-methoxy-5-(piperazin-1-yl)pyridin-2-yl]methyl}-1H-pyrazolo[4,3-d]pyrimidin-7-yl)amino]hexan-1-ol]: the EC50 in the experiment with CD69 (Homo sapiens, 17 h) amounted to 55.5 nM; at human TLR7, 309 nM.
Regarding `CCC[C@@H](CCO)Nc1nc(N)nc2cnn(Cc3ncc(N4CCN(CC(C)(C)O)CC4)cc3OC)c12` [Compound 172, (3S)-3-{[5-amino-1-({5-[4-(2-hydroxy-2-methylpropyl)piperazin-1-yl]-3-methoxypyridin-2-yl}methyl)-1H-pyrazolo[4,3-d]pyrimidin-7-yl]amino}hexan-1-ol], the EC50 in the experiment with CD69 (Homo sapiens, 17 h) was 10.8 nM; on human TLR7 it was 19.9 nM.
In the case of `CCC[C@@H](CCO)Nc1nc(N)nc2cnn(Cc3cnc(C4CCN(CCO)CC4)cc3OC)c12` [Compound 173, (3S)-3-{[5-amino-1-({6-[1-(2-hydroxyethyl)piperidin-4-yl]-4-methoxypyridin-3-yl}methyl)-1H-pyrazolo[4,3-d]pyrimidin-7-yl]amino}hexan-1-ol], the EC50 in the experiment with CD69 (Homo sapiens, 17 h) was 4.8 nM; at human TLR7, 89.9 nM.
For the compound `CCC[C@@H](CCO)Nc1nc(N)nc2cnn(Cc3cnc(C4CCN(C)CC4)cc3OC)c12` [Compound 174, (3S)-3-[(5-amino-1-{[4-methoxy-6-(1-methylpiperidin-4-yl)pyridin-3-yl]methyl}-1H-pyrazolo[4,3-d]pyrimidin-7-yl)amino]hexan-1-ol], the EC50 was found to be 2.9 nM in the experiment on CD69 (Homo sapiens, 17 h) and 11 nM on human TLR7.
As for `CCC[C@@H](CCO)Nc1nc(N)nc2cnn(Cc3ccc(C4CCCN4)cc3OC)c12` (stereo partly drawn) [Compound 175, (3S)-3-[(5-amino-1-{[2-methoxy-4-(pyrrolidin-2-yl)phenyl]methyl}-1H-pyrazolo[4,3-d]pyrimidin-7-yl)amino]hexan-1-ol], the concentration giving a half-maximal response (EC50) in the experiment on CD69 (Homo sapiens, 17 h) was determined as 0.91 nM; on human TLR7, 8.8 nM.
The like results for `CCC[C@@H](CCO)Nc1nc(N)nc2cnn(Cc3cnc(C4CCN(CC(C)(C)O)CC4)cc3OC)c12` [Compound 176, (3S)-3-{[5-amino-1-({6-[1-(2-hydroxy-2-methylpropyl)piperidin-4-yl]-4-methoxypyridin-3-yl}methyl)-1H-pyrazolo[4,3-d]pyrimidin-7-yl]amino}hexan-1-ol] were, in that order, 0.21 nM and 4.8 nM.
The like results for `CCC[C@@H](CCO)Nc1nc(N)nc2cnn(Cc3nnc(C4CCN(C(C)C)CC4)cc3OC)c12` [Compound 177, (3S)-3-{[5-amino-1-({4-methoxy-6-[1-(propan-2-yl)piperidin-4-yl]pyridazin-3-yl}methyl)-1H-pyrazolo[4,3-d]pyrimidin-7-yl]amino}hexan-1-ol] were, in that order, 9.9 nM and 579 nM.
For `CCC[C@@H](CCO)Nc1nc(N)nc2cnn(Cc3ncc(C4CCCN4)cc3OC)c12` (stereo partly drawn) [Compound 178, (3S)-3-[(5-amino-1-{[3-methoxy-5-(pyrrolidin-2-yl)pyridin-2-yl]methyl}-1H-pyrazolo[4,3-d]pyrimidin-7-yl)amino]hexan-1-ol], the EC50 turned out to be 2 nM with CD69 (Homo sapiens, 17 h) and 279 nM at human TLR7.
For `CCC[C@@H](CCO)Nc1nc(N)nc2cnn(Cc3ncc(C4CCCCN4)cc3OC)c12` (stereo partly drawn) [Compound 179, (3S)-3-[(5-amino-1-{[3-methoxy-5-(piperidin-2-yl)pyridin-2-yl]methyl}-1H-pyrazolo[4,3-d]pyrimidin-7-yl)amino]hexan-1-ol] the same measures were 2.8 nM and 235 nM.
For `CCC[C@@H](CCO)Nc1nc(N)nc2cnn(Cc3ccc(C4CNCCN4)cc3OC)c12` (stereo partly drawn) [Compound 180, (3S)-3-[(5-amino-1-{[2-methoxy-4-(piperazin-2-yl)phenyl]methyl}-1H-pyrazolo[4,3-d]pyrimidin-7-yl)amino]hexan-1-ol] the same measures were 7.2 nM and 67.9 nM.
On to `CCC[C@@H](CCO)Nc1nc(N)nc2cnn(Cc3ccc(C4CN(CCO)CCN4)cc3OC)c12` (stereo partly drawn) [Compound 181, (3S)-3-{[5-amino-1-({4-[4-(2-hydroxyethyl)piperazin-2-yl]-2-methoxyphenyl}methyl)-1H-pyrazolo[4,3-d]pyrimidin-7-yl]amino}hexan-1-ol], for which the EC50 was 4.57 nM with CD69 (Homo sapiens, 17 h) and 139 nM on human TLR7.
The like results for `CCC[C@@H](CCO)Nc1nc(N)nc2cnn(Cc3ccc(C4CN(C(C)C)CCN4)cc3OC)c12` (stereo partly drawn) [Compound 182, (3S)-3-{[5-amino-1-({2-methoxy-4-[4-(propan-2-yl)piperazin-2-yl]phenyl}methyl)-1H-pyrazolo[4,3-d]pyrimidin-7-yl]amino}hexan-1-ol] were, in that order, 0.28 nM and 6.8 nM.
Consider `CCC[C@@H](CCO)Nc1nc(N)nc2cnn(Cc3ccc(C4CN(C(C)C)CCN4)cc3OC)c12` (stereo partly drawn) [Compound 184, (3S)-3-{[5-amino-1-({2-methoxy-4-[4-(propan-2-yl)piperazin-2-yl]phenyl}methyl)-1H-pyrazolo[4,3-d]pyrimidin-7-yl]amino}hexan-1-ol], for which the EC50 was determined as 0.15 nM in the experiment with CD69 (17 hrs) and 6.5 nM on human TLR7.
On to `CCC[C@@H](CCO)Nc1nc(N)nc2cnn(Cc3nc(C4CCNCC4)ccc3OC)c12` [Compound 186, (3S)-3-[(5-amino-1-{[3-methoxy-6-(piperidin-4-yl)pyridin-2-yl]methyl}-1H-pyrazolo[4,3-d]pyrimidin-7-yl)amino]hexan-1-ol], for which the EC50 in the experiment on CD69 (Homo sapiens, 17 h) worked out at 242 nM; at human TLR7, 1650 nM.
The like results for `CCC[C@@H](CCO)Nc1nc(N)nc2cnn(Cc3nc(C4CCN(C(=O)CN(C)C)CC4)ccc3OC)c12` [Compound 187, 1-(4-{6-[(5-amino-7-{[(3S)-1-hydroxyhexan-3-yl]amino}-1H-pyrazolo[4,3-d]pyrimidin-1-yl)methyl]-5-methoxypyridin-2-yl}piperidin-1-yl)-2-(dimethylamino)ethan-1-one] were, in that order, 80.5 nM and 402 nM.
For `CCC[C@@H](CCO)Nc1nc(N)nc2cnn(Cc3nc(C4CCN(CCO)CC4)ccc3OC)c12` [Compound 188, (3S)-3-{[5-amino-1-({6-[1-(2-hydroxyethyl)piperidin-4-yl]-3-methoxypyridin-2-yl}methyl)-1H-pyrazolo[4,3-d]pyrimidin-7-yl]amino}hexan-1-ol] the same measures were 83.7 nM and 290 nM.
Consider `CCC[C@@H](CCO)Nc1nc(N)nc2cnn(Cc3nc(C4CCN(C5CCOCC5)CC4)ccc3OC)c12` [Compound 189, (3S)-3-{[5-amino-1-({3-methoxy-6-[1-(oxan-4-yl)piperidin-4-yl]pyridin-2-yl}methyl)-1H-pyrazolo[4,3-d]pyrimidin-7-yl]amino}hexan-1-ol], for which the 50% effective concentration (EC50) turned out to be 9.8 nM in the experiment on CD69 (Homo sapiens, 17 h) and 85.3 nM on human TLR7.
Regarding `CCC[C@@H](CCO)Nc1nc(N)nc2cnn(Cc3nc(C4CCN(C(C)C)CC4)ccc3OC)c12` [Compound 190, (3S)-3-{[5-amino-1-({3-methoxy-6-[1-(propan-2-yl)piperidin-4-yl]pyridin-2-yl}methyl)-1H-pyrazolo[4,3-d]pyrimidin-7-yl]amino}hexan-1-ol], the EC50 in the experiment on CD69 (Homo sapiens, 17 h) is 26.7 nM; on human TLR7, 175 nM.
The like results for `CCC[C@@H](CCO)Nc1nc(N)nc2cnn(Cc3nc(C4CCN(C)CC4)ccc3OC)c12` [Compound 191, (3S)-3-[(5-amino-1-{[3-methoxy-6-(1-methylpiperidin-4-yl)pyridin-2-yl]methyl}-1H-pyrazolo[4,3-d]pyrimidin-7-yl)amino]hexan-1-ol] were, in that order, 35.8 nM and 221 nM.
The like results for `CCCCNc1nc(N)nc2cnn(Cc3cc(F)c(N4CCNCC4)cc3OC)c12` [Compound 192, N7-butyl-1-{[5-fluoro-2-methoxy-4-(piperazin-1-yl)phenyl]methyl}-1H-pyrazolo[4,3-d]pyrimidine-5,7-diamine] were, in that order, 58.2 nM and 193 nM.
